Source: PMC10745867, “Biotransformation of Ursonic Acid by Aspergillus ochraceus and Aspergillus oryzae to Discover Anti-Neuroinflammatory Derivatives” (Molecules, 2023)
Entries after “also recorded” stand apart in the source; their conditions may differ.

Columns and labels:
[1] = Cell viability of BV-2 cells (MTT assay); format: cell-based; design: concentration or dose not given beside the values; settings: mouse, mean ± SD, n = 3
Description: (§1) NO production was assessed indirectly using the Griess reaction by measuring nitrite concentration in a culture medium. BV-2 cells were cultured in Dulbecco’s Modified Eagle Medium, supplemented with 10% FBS, 100 units/mL of penicillin, and 100 μg/mL of streptomycin. These cells were seeded in 96-well plates at a density of 8 × 10^4 cells/well and incubated for 24 h. Post incubation, they were exposed to 100 ng/mL of LPS alongside different compound concentrations for 48 h. A mixture of 100 μL culture supernatant and Griess reagent was left at room temperature for 10 min, with absorbance later read at 570 nm. L-NMMA served as the positive control. Cell viability was determined using the MTT assay, and experiments were conducted in triplicate. The IC50 for NO production inhibition was computed using GraphPad Prism 7.00 software.

[2] = test system: NO production induced by LPS in BV-2 cells; experiment: Inhibition of LPS-induced NO production in BV-2 cells (Griess method); format: cell-based; settings: for IC50: BV-2 cells, 100 ng/mL LPS, 48 h, Griess reaction, mean ± SD, n = 3; for Suppression of NO generation (result in words): LPS-triggered BV-2 cells, Griess method
Description: To assess the potential capabilities of all modified products in counteracting neuroinflammation, we measured their suppressive effects on NO generation within LPS-triggered BV-2 cells using the Griess method.
as §1

SMILES	IC50 ([2]; Mus musculus, BV-2, 48 h)	melting point	IC50 [2]	viability at 48 h [1]	Suppression of NO generation (result in words) [2]
CC1C(O)CC23CCC4(C)C(C=CC5C6(C)CCC(=O)C(C)(C)C6CC(O)C54C)(OC2=O)C3C1C (stereo not drawn) [Compound 9, 3-oxo-7β,21β-dihydroxy-urs-11-en-13β,28β-lactone]	> 100 µM	261 to 265 °C	–	104 ± 3.86%	did not showcase any suppression capabilities; also recorded: did not exhibit any inhibitory activities
CC1C(O)CC23CCC4(C)C5(C)CCC6C(C)(C)C(=O)CC(O)C6(C)C5C5OC5C4(OC2=O)C3C1C (stereo not drawn) [Compound 14, 3-oxo-1β,21β-dihydroxyl-11β,12β-epoxyl-urs-13β,28β-lactone]	22.6 ± 3.44 µM	278 to 280 °C	–	104 ± 4.92%	–
CC1C(O)CC23CCC4(C)C5(C)C(O)CC6C(C)(C)C(=O)CCC6(C)C5C5OC5C4(OC2=O)C3C1C (stereo not drawn) [Compound 15, 3-oxo-7α,21β-dihydroxyl-11β,12β-epoxyl-urs-13β,28β-lactone]	36.6 ± 2.33 µM	270 to 274 °C	–	102 ± 3.18%	–
C[C@H]1[C@H](C)C2[C@@]3(CC[C@@]4(C)[C@@]5(C)C([C@H]6O[C@H]6[C@]24OC3=O)[C@@]2(C)CCC(=O)C(C)(C)C2C[C@@H]5O)C[C@@H]1O (stereo partly drawn) [Compound 16, 3-oxo-7β,21β-dihydroxyl-11β,12β-epoxyl-urs-13β,28β-lactone]	6.9 µM	268 to 273 °C	6.86 ± 3.52 µM	97.8 ± 4.75%	–
CC1C(=O)CC23CCC4(C)C5(C)C(O)CC6C(C)(C)C(=O)CCC6(C)C5C5OC5C4(OC2=O)C3C1C (stereo not drawn) [Compound 17, 3,21-dioxo-7β-hydroxyl-11β,12β-epoxyl-urs-13β,28β-lactone]	40.8 ± 3.26 µM	247 to 249 °C	–	100 ± 3.54%	–
CC1C(O)CC23CCC4(C)C5(C)CCC6C(C)(C)C(=O)C=CC6(C)C5C5OC5C4(OC2=O)C3C1C (stereo not drawn) [Compound 18, 3-oxo-21β-hydroxyl-11β,12β-epoxyl-urs-1-ene-13β,28β-lactone]	17.4 ± 2.72 µM	242 to 245 °C	–	103 ± 3.26%	–
CC1=C2C(C3OC3C34OC(=O)C5(CCC23C)CC(O)C(C)C(C)C54)C2(C)CCC(=O)C(C)(C)C2C1 (stereo not drawn) [Compound 19, 3-oxo-21β-hydroxyl-7-methyl-11β,12β-epoxyl-7-ene-26-norurs-13β,28β-lactone]	5.3 µM	282 to 284 °C	5.25 ± 3.19 µM	103 ± 3.03%	–
[H]/N=C(/NC)NCCC[C@H](N)C(=O)O [L-NMMA, reference compound]	28.2 ± 2.97 µM	–	–	101 ± 4.36%	–

More lines, main results first:

IC50 ([2]; Mus musculus, BV-2, 48 h)	melting point	IC50 [2]	SMILES	viability at 48 h [1]	Suppression of NO generation (result in words) [2]
84.7 ± 3.22 µM	–	–	C[C@H]1[C@H](C)CC[C@]2(C(=O)O)CC[C@]3(C)C(=CC[C@@H]4[C@@]5(C)CCC(=O)C(C)(C)[C@@H]5CC[C@]43C)[C@H]12 [Compound 1, Ursonic acid]	98.8 ± 3.61%	–
38.2 ± 4.09 µM	–	–	C[C@H]1[C@H](C)C2C3=CCC4[C@@]5(C)CCC(=O)C(C)(C)C5CC[C@@]4(C)[C@]3(C)CC[C@@]2(C(=O)O)C[C@@H]1O (stereo partly drawn) [Compound 2, 3-oxo-21β-hydroxy-12-en-urs-28-oic acid]	101 ± 2.45%	–
20.9 ± 2.13 µM	–	–	C[C@H]1[C@H](C)C2C3=CCC4[C@@]5(C)CCC(=O)C(C)(C)C5C[C@H](O)[C@@]4(C)[C@]3(C)CC[C@@]2(C(=O)O)C[C@@H]1O (stereo partly drawn) [Compound 3, 3-oxo-7β,21β-dihydroxy-12-en-28-oic acid]	100 ± 3.92%	–
> 100 µM	–	–	C[C@@H]1C(=O)C[C@]2(C(=O)O)CC[C@]3(C)C(=CCC4[C@@]5(C)CCC(=O)C(C)(C)C5CC[C@]43C)C2[C@H]1C (stereo partly shown) [Compound 4, 3,21-dioxo-urs-12-en-28-oic acid]	104 ± 3.18%	did not showcase any suppression capabilities
52.8 ± 3.34 µM	251 to 254 °C	–	CC1C(=O)CC2(C(=O)O)CCC3(C)C(=CCC4C5(C)CCC(=O)C(C)(C)C5CC(O)C43C)C2C1C (stereo not drawn) [Compound 5, 3,21-dioxo-7β-hydroxy-urs-12-en-28-oic acid]	101 ± 4.11%	–
50.2 ± 3.16 µM	–	–	C[C@@H]1CC[C@]2(C(=O)O)CC[C@]3(C)C(=CC(=O)C4[C@@]5(C)CCC(=O)C(C)(C)C5CC[C@]43C)C2[C@H]1C (stereo partly shown) [Compound 6, 3,11-dioxo-12-en-urs-28-oic acid]	105 ± 4.23%	–
11.6 ± 2.01 µM	268 to 271 °C	–	COC1C=C2C3C(C)C(C)C(O)CC3(C(=O)O)CCC2(C)C2(C)CCC3C(C)(C)C(=O)CCC3(C)C12 (stereo not drawn) [Compound 7, 3-oxo-11α-methoxy-21β-hydroxy-urs-12-en-28-oic acid]	99.2 ± 3.72%	–
> 100 µM	245 to 247 °C	–	CC1C(O)CC23CCC4(C)C5(C)CCC6C(C)(C)C(=O)CCC6(C)C5C=CC4(OC2=O)C3C1C (stereo not drawn) [Compound 8, 3-oxo-21β-hydroxy-urs-11-en-13β,28β-lactone]	102 ± 3.54%	did not showcase any suppression capabilities; also recorded: did not exhibit any inhibitory activities
8.2 µM	284 to 288 °C	8.23 ± 2.61 µM	COC1=CCC2(C)C(CCC3(C)C2CC=C2C4C(C)C(C)CCC4(C(=O)O)CCC23C)C1(C)C (stereo not shown) [Compound 10, 3-methoxy-urs-2,12-dien-28-oic acid]	104 ± 4.05%	–
42.5 ± 3.7 µM	–	–	C[C@@H]1CC[C@]2(C(=O)O)CC[C@]3(C)C(=CCC4[C@@]5(C)CCC(=O)C(C)(C)C5CC[C@]43C)C2[C@]1(C)O (stereo partly drawn) [Compound 11, 3-oxo-19α-hydroxy-12-en-urs-28-oic acid]	101 ± 3.42%	–
31.1 ± 3.98 µM	–	–	C[C@@H]1CC[C@]2(C(=O)O[C@@H]3O[C@H](CO)[C@@H](O)[C@H](O)[C@H]3O)CC[C@]3(C)C(=CCC4[C@@]5(C)CCC(=O)C(C)(C)C5CC[C@]43C)C2[C@H]1C (stereo partly drawn) [Compound 12, ursonic acid-28-O-β-D-glucopyranosyl ester]	98.2 ± 4.37%	–
15.2 ± 3.07 µM	257 to 263 °C	–	CC1C(O)CC23CCC4(C)C5(C)CCC6C(C)(C)C(=O)CCC6(C)C5C5OC5C4(OC2=O)C3C1C (stereo not drawn) [Compound 13, 3-oxo-21β-hydroxyl-11β,12β-epoxyl-urs-13β,28β-lactone]	103 ± 3.59%	–
